From ChEMBL document CHEMBL3991601, “The target landscape of clinical kinase drugs” (Science, 2017)
Calls of active or inactive are those of the source.

Assays:
Actin-related protein 2 = Actin-related protein 2 (Homo sapiens, UniProt P61160)
Adenosine kinase = Adenosine kinase (Homo sapiens, UniProt P55263)
[1] = target: RAC-gamma serine/threonine-protein kinase (Homo sapiens, UniProt Q9Y243)
Deoxycytidine kinase = Deoxycytidine kinase (Homo sapiens, UniProt P27707)
Ephrin type-A receptor 4 = Ephrin type-A receptor 4 (Homo sapiens, UniProt P54764)
Ephrin type-A receptor 4, sequence (P54764 whole entry): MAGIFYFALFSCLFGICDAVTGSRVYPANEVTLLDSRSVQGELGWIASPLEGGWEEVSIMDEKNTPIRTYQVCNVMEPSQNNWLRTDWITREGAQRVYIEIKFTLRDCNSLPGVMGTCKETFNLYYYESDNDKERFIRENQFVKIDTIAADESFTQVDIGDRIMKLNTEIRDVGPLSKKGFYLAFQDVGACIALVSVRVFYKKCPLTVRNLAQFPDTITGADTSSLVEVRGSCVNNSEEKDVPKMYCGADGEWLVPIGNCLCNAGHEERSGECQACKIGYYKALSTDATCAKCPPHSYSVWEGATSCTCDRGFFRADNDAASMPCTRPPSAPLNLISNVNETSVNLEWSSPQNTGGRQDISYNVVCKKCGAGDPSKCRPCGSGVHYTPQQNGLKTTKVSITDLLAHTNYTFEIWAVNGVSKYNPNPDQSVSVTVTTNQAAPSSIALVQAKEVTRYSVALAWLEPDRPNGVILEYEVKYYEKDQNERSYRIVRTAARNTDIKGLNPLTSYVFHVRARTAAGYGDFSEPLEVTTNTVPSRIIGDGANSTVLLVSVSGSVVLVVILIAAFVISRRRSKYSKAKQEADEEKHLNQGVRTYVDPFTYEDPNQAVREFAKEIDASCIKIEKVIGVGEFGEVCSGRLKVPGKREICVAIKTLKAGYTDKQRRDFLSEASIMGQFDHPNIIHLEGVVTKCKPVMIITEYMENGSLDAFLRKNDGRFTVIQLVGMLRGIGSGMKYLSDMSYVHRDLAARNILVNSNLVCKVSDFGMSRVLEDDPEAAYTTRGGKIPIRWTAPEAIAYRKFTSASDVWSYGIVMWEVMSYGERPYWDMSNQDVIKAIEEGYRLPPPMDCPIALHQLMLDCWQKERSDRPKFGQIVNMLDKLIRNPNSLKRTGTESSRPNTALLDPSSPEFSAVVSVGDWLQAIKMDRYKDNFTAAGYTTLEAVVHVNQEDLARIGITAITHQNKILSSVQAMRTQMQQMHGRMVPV

[2] = target: T1, Ferrochelatase, mitochondrial (Homo sapiens, UniProt P22830)
T1 sequence (P22830 whole entry): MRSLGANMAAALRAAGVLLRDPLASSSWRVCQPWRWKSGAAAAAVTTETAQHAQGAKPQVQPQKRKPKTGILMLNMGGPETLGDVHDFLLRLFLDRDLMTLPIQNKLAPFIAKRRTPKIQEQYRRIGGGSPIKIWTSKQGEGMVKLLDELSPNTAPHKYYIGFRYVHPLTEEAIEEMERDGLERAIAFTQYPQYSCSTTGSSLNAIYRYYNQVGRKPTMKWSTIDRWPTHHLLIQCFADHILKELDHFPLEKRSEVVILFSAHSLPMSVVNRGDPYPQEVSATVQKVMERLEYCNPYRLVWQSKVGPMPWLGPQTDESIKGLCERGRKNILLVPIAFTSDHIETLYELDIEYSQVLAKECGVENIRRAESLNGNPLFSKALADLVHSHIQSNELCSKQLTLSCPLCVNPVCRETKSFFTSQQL

[3] = target: Putative heat shock protein HSP 90-beta 2 (Homo sapiens, UniProt Q58FF8)
Putative heat shock protein HSP 90-beta 2, sequence (Q58FF8 whole entry): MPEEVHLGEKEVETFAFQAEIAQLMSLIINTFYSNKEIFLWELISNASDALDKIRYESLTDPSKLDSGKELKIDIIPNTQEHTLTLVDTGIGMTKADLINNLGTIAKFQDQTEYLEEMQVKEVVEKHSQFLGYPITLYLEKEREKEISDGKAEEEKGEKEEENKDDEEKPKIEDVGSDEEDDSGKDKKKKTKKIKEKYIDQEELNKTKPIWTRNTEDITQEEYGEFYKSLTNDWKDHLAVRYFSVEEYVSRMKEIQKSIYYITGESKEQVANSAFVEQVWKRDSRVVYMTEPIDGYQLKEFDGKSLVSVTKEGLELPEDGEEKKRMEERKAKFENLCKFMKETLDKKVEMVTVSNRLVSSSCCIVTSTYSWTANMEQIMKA

[4] = target: T2, Mitogen-activated protein kinase 15 (Homo sapiens, UniProt Q8TD08)
T2 sequence (Q8TD08 whole entry): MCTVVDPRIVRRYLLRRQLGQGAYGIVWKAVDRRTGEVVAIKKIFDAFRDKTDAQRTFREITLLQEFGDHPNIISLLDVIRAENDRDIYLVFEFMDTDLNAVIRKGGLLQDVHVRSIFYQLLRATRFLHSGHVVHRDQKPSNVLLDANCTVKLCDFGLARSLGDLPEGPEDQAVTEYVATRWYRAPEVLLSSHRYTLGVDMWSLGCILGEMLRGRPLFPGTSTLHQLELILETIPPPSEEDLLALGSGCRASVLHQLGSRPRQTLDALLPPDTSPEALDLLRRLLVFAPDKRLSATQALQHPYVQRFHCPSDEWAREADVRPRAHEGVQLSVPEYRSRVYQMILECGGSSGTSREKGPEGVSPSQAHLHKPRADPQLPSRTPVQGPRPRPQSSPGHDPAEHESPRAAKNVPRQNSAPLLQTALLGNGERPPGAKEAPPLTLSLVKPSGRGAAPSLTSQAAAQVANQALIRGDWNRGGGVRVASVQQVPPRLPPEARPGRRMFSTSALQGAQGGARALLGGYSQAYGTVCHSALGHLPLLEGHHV

[5] = target: Serine/threonine-protein kinase PAK 4 (Homo sapiens, UniProt O96013)
Serine/threonine-protein kinase PAK 4, sequence (O96013 whole entry): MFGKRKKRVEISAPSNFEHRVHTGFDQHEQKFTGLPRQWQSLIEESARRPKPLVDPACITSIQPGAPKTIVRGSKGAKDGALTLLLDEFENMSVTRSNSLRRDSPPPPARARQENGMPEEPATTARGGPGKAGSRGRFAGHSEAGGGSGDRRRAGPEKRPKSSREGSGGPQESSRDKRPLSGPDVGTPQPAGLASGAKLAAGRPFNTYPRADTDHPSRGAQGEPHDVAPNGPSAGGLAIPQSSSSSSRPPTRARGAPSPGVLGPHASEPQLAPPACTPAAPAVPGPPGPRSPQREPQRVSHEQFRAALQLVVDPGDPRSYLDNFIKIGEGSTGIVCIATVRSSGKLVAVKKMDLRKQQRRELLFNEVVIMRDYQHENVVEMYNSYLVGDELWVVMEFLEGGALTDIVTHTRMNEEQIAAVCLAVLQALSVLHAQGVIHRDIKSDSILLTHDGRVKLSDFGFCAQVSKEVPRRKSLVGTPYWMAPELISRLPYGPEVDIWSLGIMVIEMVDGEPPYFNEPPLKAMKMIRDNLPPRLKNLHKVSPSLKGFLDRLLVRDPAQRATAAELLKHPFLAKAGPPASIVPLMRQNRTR

[6] = target: T3, Serine/threonine-protein kinase TAO2 (Homo sapiens, UniProt Q9UL54)
T3 sequence (Q9UL54 whole entry): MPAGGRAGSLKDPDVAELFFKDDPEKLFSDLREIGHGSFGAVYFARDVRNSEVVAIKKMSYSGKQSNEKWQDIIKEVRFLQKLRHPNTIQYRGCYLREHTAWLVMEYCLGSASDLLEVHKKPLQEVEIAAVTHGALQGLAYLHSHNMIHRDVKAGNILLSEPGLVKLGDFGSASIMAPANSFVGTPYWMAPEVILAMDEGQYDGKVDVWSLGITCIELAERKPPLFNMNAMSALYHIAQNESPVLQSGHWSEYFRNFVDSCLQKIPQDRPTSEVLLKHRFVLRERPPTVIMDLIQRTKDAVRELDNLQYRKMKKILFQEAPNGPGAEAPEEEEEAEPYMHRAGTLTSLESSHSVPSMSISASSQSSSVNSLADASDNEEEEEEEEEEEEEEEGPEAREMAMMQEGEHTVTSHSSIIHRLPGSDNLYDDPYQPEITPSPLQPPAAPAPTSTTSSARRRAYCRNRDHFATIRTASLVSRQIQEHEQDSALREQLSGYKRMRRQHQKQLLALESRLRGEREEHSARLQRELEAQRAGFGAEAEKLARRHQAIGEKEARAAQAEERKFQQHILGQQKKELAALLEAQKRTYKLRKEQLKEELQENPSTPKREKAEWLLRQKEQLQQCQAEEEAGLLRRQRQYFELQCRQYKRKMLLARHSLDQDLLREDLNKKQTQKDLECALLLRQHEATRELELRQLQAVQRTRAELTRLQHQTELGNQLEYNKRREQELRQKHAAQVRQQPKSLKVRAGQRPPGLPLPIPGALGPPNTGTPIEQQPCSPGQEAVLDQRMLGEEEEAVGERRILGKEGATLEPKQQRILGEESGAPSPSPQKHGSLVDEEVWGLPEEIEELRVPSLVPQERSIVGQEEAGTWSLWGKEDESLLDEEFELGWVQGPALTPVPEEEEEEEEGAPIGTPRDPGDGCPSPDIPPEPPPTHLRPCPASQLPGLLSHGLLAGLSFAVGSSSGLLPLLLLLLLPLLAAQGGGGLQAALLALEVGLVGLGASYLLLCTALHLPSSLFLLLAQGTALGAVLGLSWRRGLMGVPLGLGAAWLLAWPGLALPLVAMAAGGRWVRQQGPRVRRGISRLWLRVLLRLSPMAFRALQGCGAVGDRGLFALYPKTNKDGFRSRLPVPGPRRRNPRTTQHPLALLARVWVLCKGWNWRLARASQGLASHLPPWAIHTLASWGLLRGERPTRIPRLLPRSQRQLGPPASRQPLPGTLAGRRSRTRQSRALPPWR
Further: in the data inactive means no Kd found up to 30 µM.

Deoxycytidine kinase, sequence (P27707 whole entry): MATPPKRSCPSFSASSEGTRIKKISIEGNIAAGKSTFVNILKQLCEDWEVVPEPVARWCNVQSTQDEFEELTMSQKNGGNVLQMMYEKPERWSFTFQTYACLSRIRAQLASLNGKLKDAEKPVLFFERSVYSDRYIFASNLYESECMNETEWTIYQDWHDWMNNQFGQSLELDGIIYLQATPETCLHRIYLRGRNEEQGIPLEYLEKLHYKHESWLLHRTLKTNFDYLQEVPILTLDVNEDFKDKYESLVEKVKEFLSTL
RAC-gamma serine/threonine-protein kinase, sequence (Q9Y243 whole entry): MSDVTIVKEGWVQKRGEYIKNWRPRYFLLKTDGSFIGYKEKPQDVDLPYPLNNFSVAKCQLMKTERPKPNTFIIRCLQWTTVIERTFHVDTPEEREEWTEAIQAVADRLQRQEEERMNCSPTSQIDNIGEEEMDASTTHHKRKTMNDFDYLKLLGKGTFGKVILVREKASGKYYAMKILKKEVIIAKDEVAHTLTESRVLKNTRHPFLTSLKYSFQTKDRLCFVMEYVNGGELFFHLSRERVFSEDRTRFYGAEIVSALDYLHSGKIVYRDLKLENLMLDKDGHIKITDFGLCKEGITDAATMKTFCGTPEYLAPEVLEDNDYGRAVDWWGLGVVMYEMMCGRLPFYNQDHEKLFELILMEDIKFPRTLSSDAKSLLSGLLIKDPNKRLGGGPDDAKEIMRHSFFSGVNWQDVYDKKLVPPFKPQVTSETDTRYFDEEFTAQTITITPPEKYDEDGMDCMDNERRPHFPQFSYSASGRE
Adenosine kinase, sequence (P55263 whole entry): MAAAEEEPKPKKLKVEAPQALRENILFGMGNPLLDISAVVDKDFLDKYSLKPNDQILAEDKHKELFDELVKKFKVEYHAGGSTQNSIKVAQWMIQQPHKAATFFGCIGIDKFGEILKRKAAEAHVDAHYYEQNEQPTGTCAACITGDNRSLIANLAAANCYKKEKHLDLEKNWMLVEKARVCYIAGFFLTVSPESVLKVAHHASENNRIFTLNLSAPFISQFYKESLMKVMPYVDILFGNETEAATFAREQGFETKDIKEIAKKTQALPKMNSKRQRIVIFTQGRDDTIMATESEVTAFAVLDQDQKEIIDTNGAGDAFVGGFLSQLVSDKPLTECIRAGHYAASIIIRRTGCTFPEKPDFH

Structure (SMILES)	Kd (Actin-related protein 2)	Kd (Adenosine kinase)	Kd [1]	Kd (Deoxycytidine kinase)	Kd (Ephrin type-A receptor 4)	Kd [2]	Kd [3]	Kd [4]	Kd [5]	Kd [6]
COCC(=O)NC/C=C/c1ccc2ncnc(Nc3ccc(Oc4ccc(C)nc4)c(C)c3)c2c1 [CP-724714]	> 30 µM (inactive)	> 30 µM (inactive)	> 30 µM (inactive)	> 30 µM (inactive)	> 30 µM (inactive)	28.6 µM (active)	> 30 µM (inactive)	> 30 µM (inactive)	> 30 µM (inactive)	> 30 µM (inactive)
C#Cc1cccc(Nc2ncnc3cc(OC)c(OCCCCCCC(=O)NO)cc23)c1 [CUDC-101]	> 30 µM (inactive)	> 30 µM (inactive)	> 30 µM (inactive)	> 30 µM (inactive)	> 30 µM (inactive)	2.87 µM (active)	> 30 µM (inactive)	> 30 µM (inactive)	> 30 µM (inactive)	> 30 µM (inactive)
O=C(Nc1nc2cccc(-c3ccc(CN4CCS(=O)(=O)CC4)cc3)n2n1)C1CC1 [FILGOTINIB]	> 30 µM (inactive)	> 30 µM (inactive)	> 30 µM (inactive)	> 30 µM (inactive)	> 30 µM (inactive)	> 30 µM (inactive)	> 30 µM (inactive)	> 30 µM (inactive)	> 30 µM (inactive)	> 30 µM (inactive)
Cc1cccc(-c2nn3c(c2-c2ccnc4ccc(C(N)=O)cc24)CCC3)n1 [GALUNISERTIB]	> 30 µM (inactive)	> 30 µM (inactive)	> 30 µM (inactive)	> 30 µM (inactive)	> 30 µM (inactive)	> 30 µM (inactive)	> 30 µM (inactive)	> 30 µM (inactive)	> 30 µM (inactive)	> 30 µM (inactive)
COc1ccc(S(=O)(=O)N(C(C)=O)c2ccccc2/C=C/c2cc[n+]([O-])cc2)cc1 [HMN-214]	> 30 µM (inactive)	> 30 µM (inactive)	> 30 µM (inactive)	> 30 µM (inactive)	> 30 µM (inactive)	> 30 µM (inactive)	> 30 µM (inactive)	> 30 µM (inactive)	> 30 µM (inactive)	> 30 µM (inactive)
CNC(=O)c1cccc2cc(Oc3ccnc4cc(OCC5(N)CC5)c(OC)cc34)ccc12 [LUCITANIB]	> 30 µM (inactive)	> 30 µM (inactive)	> 30 µM (inactive)	> 30 µM (inactive)	> 30 µM (inactive)	> 30 µM (inactive)	> 30 µM (inactive)	> 30 µM (inactive)	> 30 µM (inactive)	> 30 µM (inactive)
CN(C[C@@H]1COCCO1)S(=O)(=O)Nc1ccc2ccc3ncc(-c4cnn(C)c4)cc3c(=O)c2c1 [MK-2461]	> 30 µM (inactive)	> 30 µM (inactive)	> 30 µM (inactive)	> 30 µM (inactive)	> 30 µM (inactive)	3.42 µM (active)	> 30 µM (inactive)	> 30 µM (inactive)	> 30 µM (inactive)	> 30 µM (inactive)
Cn1cc(-c2cnc3ccc4ccc(CS(=O)(=O)NCc5ccccn5)cc4c(=O)c3c2)cn1 [MK-8033]	> 30 µM (inactive)	> 30 µM (inactive)	> 30 µM (inactive)	> 30 µM (inactive)	> 30 µM (inactive)	32.6 µM (active)	> 30 µM (inactive)	> 30 µM (inactive)	> 30 µM (inactive)	> 30 µM (inactive)
